Test results reported in US20230111310A1, “CARBOXYLIC ACID DERIVATIVE-SUBSTITUTED IMINO ARYL COMPOUND, PREPARATION METHOD THEREFOR, HERBICIDAL COMPOSITION AND USE THEREOF” (Qingdao Kingagroot Chemical Compound Co., Ltd., priority 2020, published 2023).

Experiments:
Experiment in all cases: Weeding effect in post-emergence stage
Type in all cases: in vivo
Digitaria sanguinalis = conditions: Dose 15 g/ha; for Weeding effect in post-emergence stage, Digitaria sanguinalis: level of fresh weight growth control rate
Source text: (§1) The activity level criteria for plant damage (i.e., growth control rate) are as follows:
(§2) Monocotyledonous and dicotyledonous weed seeds (Descurainia sophia, Capsella bursa-pastoris, Abutilon theophrasti, Galium aparine, Stellaria media, Lithospermum arvense, rorippa indica, Alopecurus aequalis, Alopecurus japonicus, Eleusine indica, Beckmannia syzigachne, Sclerochloa dura, Conyza Canadensis, Phleum paniculatum, Veronica didyma Tenore, Bromus japonicus, Aegilops tauschii, Phalaris arundinacea, Amaranthus retroflexus, Chenopodiaceae, Commelina communis, Sonchus arvensis, Convolvulus arvensis, Cirsium setosum, Bidens tripartita L., Solanum nigrum, Acalypha australis, Digitaria sanguinalis, Echinochloa crusgalli, Setaria viridis, Setaria glauca, Leptochloa chinensis, Monochoria vaginalis, Sagittaria trifolia, Scirpus juncoides, Cyperus rotundus, Cyperus iria, Cyperus difformis, Fimbristylis, Portulaca oleracea, Xanthium sibiricum, Pharbitis nil, etc.) and major crop seeds (wheat, corn, rice, soybean, cotton, oilseed rape, millet, sorghum, potato, sesame, ricinus, etc.) were placed in plastic pots filled with soil, then covered with 0.5-2 cm of soil, allowed to grow in a good greenhouse environment. After 2 weeks of sowing, the test plants were treated in the 2-3 leaf stage. The tested compounds of the present invention were respectively dissolved in acetone, then added with Tween 80 and 1.5 liter/ha of emulsifiable concentrate of methyl oleate as synergist, diluted with a certain amount of water to obtain a solution with a certain concentration, and sprayed with a spray tower onto the plants. After the application, the plants were cultured for 3 weeks in the greenhouse, and then the experimental results of the weeding were counted. […]

Setaria viridis = conditions: Dose 15 g/ha; for Weeding effect in post-emergence stage, Setaria viridis: level of fresh weight growth control rate
Source text: as §1, §2

Alopecurus japonicus = conditions: Dose 15 g/ha
Source text: as §1, §2

Abutilon theophrasti = conditions: for Weeding effect in post-emergence stage, Abutilon theophrasti: level of fresh weight growth control rate; for Weeding effect in post-emergence stage, Abutilon theophrasti (level): fresh weight control rate level
Source text: as §1, §2

Eleusine indica = conditions: Dose 15 g/ha; for Weeding effect in post-emergence stage, Eleusine indica: level of fresh weight growth control rate
Source text: as §1, §2

Echinochloa crusgalli = conditions: Dose 15 g/ha; for Weeding effect in post-emergence stage, Echinochloa crusgalli: level of fresh weight growth control rate
Source text: as §1
Monocotyledonous and dicotyledonous weed seeds (Descurainia sophia, Capsella bursa-pastoris, Abutilon theophrasti, Galium aparine, Stellaria media, Lithospermum arvense, rorippa indica, Alopecurus aequalis, Alopecurus japonicus, Eleusine indica, Beckmannia syzigachne, Sclerochloa dura, Conyza Canadensis, Phleum paniculatum, Veronica didyma Tenore, Bromus japonicus, Aegilops tauschii, Phalaris arundinacea, Amaranthus retroflexus, Chenopodiaceae, Commelina communis, Sonchus arvensis, Convolvulus arvensis, Cirsium setosum, Bidens tripartita L., Solanum nigrum, Acalypha australis, Digitaria sanguinalis, Echinochloa crusgalli, Setaria viridis, Setaria glauca, Leptochloa chinensis, Monochoria vaginalis, Sagittaria trifolia, Scirpus juncoides, Cyperus rotundus, Cyperus iria, Cyperus difformis, Fimbristylis, Portulaca oleracea, Xanthium sibiricum, Pharbitis nil, etc.) and major crop seeds (wheat, corn, rice, soybean, cotton, oilseed rape, millet, sorghum, potato, sesame, ricinus, etc.) were placed in plastic pots filled with soil, then covered with 0.5-2 cm of soil, allowed to grow in a good greenhouse environment. After 2 weeks of sowing, the test plants were treated in the 2-3 leaf stage. The tested compounds of the present invention were respectively dissolved in acetone, then added with Tween 80 and 1.5 liter/ha of emulsifiable concentrate of methyl oleate as synergist, diluted with a certain amount of water to obtain a solution with a certain concentration, and sprayed with a spray tower onto the plants. After the application, the plants were cultured for 3 weeks in the greenhouse, and then the experimental results of the weeding were counted. The doses of the used compounds were 500, 250, 125, 60, 30, 15, 7.5 g/ha, and the averages were obtained by repeating for three times.

[1] = fresh weight control rate level

## CCOC(=O)C(C)O/N=C/c1cc(-n2c(=O)n(C)c(=S)n(C)c2=O)c(F)cc1Cl (racemic) [Compound 2]
Digitaria sanguinalis
  Weeding effect in post-emergence stage, Digitaria sanguinalis: 5 (Level 5: growth control rate is above 85%)
Setaria viridis
  Weeding effect in post-emergence stage, Setaria viridis: 5 (Level 5: growth control rate is above 85%)
Alopecurus japonicus; level of fresh weight growth control rate
  Weeding effect in post-emergence stage, Alopecurus japonicus: 5 (Level 5: growth control rate is above 85%)
Abutilon theophrasti; Dose 15 g/ha
  Weeding effect in post-emergence stage, Abutilon theophrasti: 5 (Level 5: growth control rate is above 85%)
Eleusine indica
  Weeding effect in post-emergence stage, Eleusine indica: 5 (Level 5: growth control rate is above 85%)
Echinochloa crusgalli
  Weeding effect in post-emergence stage, Echinochloa crusgalli: 5 (Level 5: growth control rate is above 85%)

## COC(=O)C(C)O/N=C/c1cc(-n2c(=O)n(C)c(=S)n(C)c2=O)c(F)cc1C(F)(F)F (racemic) [Compound 85]
Digitaria sanguinalis
  Weeding effect in post-emergence stage, Digitaria sanguinalis: 5 (Level 5: growth control rate is above 85%)
Setaria viridis
  Weeding effect in post-emergence stage, Setaria viridis: 5 (Level 5: growth control rate is above 85%)
Abutilon theophrasti; Dose 15 g/ha
  Weeding effect in post-emergence stage, Abutilon theophrasti: 5 (Level 5: growth control rate is above 85%)
Eleusine indica
  Weeding effect in post-emergence stage, Eleusine indica: 5 (Level 5: growth control rate is above 85%)
Echinochloa crusgalli
  Weeding effect in post-emergence stage, Echinochloa crusgalli: 5 (Level 5: growth control rate is above 85%)

## CCC(C)(O/N=C/c1cc(-n2c(=O)cc(C(F)(F)F)n(C)c2=O)c(F)cc1Cl)C(=O)OC (racemic) [Compound 471]
Abutilon theophrasti; Dose 15 g/ha
  Weeding effect in post-emergence stage, Abutilon theophrasti (level): 5 (Level 5: growth control rate is above 85%)

## COC(=O)C(C)O/N=C/c1cc(-n2c(=O)c(Br)c(C(F)(F)F)n(C)c2=O)c(F)cc1Cl (racemic) [Compound 475]
Abutilon theophrasti; Dose 15 g/ha
  Weeding effect in post-emergence stage, Abutilon theophrasti (level): 5 (Level 5: growth control rate is above 85%)

## COC(=O)C(C)O/N=C/c1cc(-n2c(=O)c(I)c(C(F)(F)F)n(C)c2=O)c(F)cc1Cl (racemic) [Compound 476]
Abutilon theophrasti; Dose 15 g/ha
  Weeding effect in post-emergence stage, Abutilon theophrasti (level): 5 (Level 5: growth control rate is above 85%)

## COC(=O)C(C)O/N=C/c1cc(-n2c(=O)c(OC)c(C(F)(F)F)n(C)c2=O)c(F)cc1Cl (racemic) [Compound 477]
Abutilon theophrasti; Dose 15 g/ha
  Weeding effect in post-emergence stage, Abutilon theophrasti (level): 5 (Level 5: growth control rate is above 85%)

## CC(O/N=C/c1cc(-n2c(=O)c(CCO)c(C(F)(F)F)n(C)c2=O)c(F)cc1Cl)C(=O)OCCO (racemic) [Compound 478]
Abutilon theophrasti; Dose 60 g/ha
  Weeding effect in post-emergence stage, Abutilon theophrasti (level): 5 (Level 5: growth control rate is above 85%)

## COC(=O)CC(C)O/N=C/c1cc(-n2c(=O)cc(C(F)(F)F)n(C)c2=O)c(F)cc1Cl (racemic) [Compound 481]
Abutilon theophrasti; Dose 15 g/ha
  Weeding effect in post-emergence stage, Abutilon theophrasti (level): 5 (Level 5: growth control rate is above 85%)

## CCC[C@@H](O/N=C/c1cc(-n2c(=O)n(C)c(=S)n(C)c2=O)c(F)cc1Cl)C(=O)OCC [74(R)]
Digitaria sanguinalis
  Weeding effect in post-emergence stage, Digitaria sanguinalis: 4 (Level 4: growth control rate is greater than or equal to 60% and less than 85%)
Setaria viridis
  Weeding effect in post-emergence stage, Setaria viridis: 5 (Level 5: growth control rate is above 85%)
Abutilon theophrasti; Dose 15 g/ha
  Weeding effect in post-emergence stage, Abutilon theophrasti: 5 (Level 5: growth control rate is above 85%)
Eleusine indica
  Weeding effect in post-emergence stage, Eleusine indica: 5 (Level 5: growth control rate is above 85%)
Echinochloa crusgalli
  Weeding effect in post-emergence stage, Echinochloa crusgalli: 5 (Level 5: growth control rate is above 85%)

## CC(ON=Cc1cc(-n2c(=O)cc(C(F)(F)F)n(C)c2=O)c(F)cc1Cl)C(=O)OCCOC(=O)C(C)ON=Cc1cc(-n2c(=O)cc(C(F)(F)F)n(C)c2=O)c(F)cc1Cl [451(R)]
Abutilon theophrasti; Dose 15 g/ha
  Weeding effect in post-emergence stage, Abutilon theophrasti (level): 5 (Level 5: growth control rate is above 85%)

## C[C@@H](O/N=C/c1cc(-n2c(=O)cc(C(F)(F)F)n(C)c2=O)c(F)cc1Cl)C(=O)NO [452(R)]
Abutilon theophrasti; Dose 15 g/ha
  Weeding effect in post-emergence stage, Abutilon theophrasti (level): 5 (Level 5: growth control rate is above 85%)

## CC[C@@](C)(O/N=C/c1cc(-n2c(=O)cc(C(F)(F)F)n(C)c2=O)c(F)cc1Cl)C(=O)OC [471(R)]
Abutilon theophrasti; Dose 15 g/ha
  Weeding effect in post-emergence stage, Abutilon theophrasti (level): 5 (Level 5: growth control rate is above 85%)

## COC(=O)[C@@H](C)O/N=C/c1cc(-n2c(=O)c(Br)c(C(F)(F)F)n(C)c2=O)c(F)cc1Cl [475(R)]
Abutilon theophrasti; Dose 15 g/ha
  Weeding effect in post-emergence stage, Abutilon theophrasti (level): 5 (Level 5: growth control rate is above 85%)

## COC(=O)[C@@H](C)O/N=C/c1cc(-n2c(=O)c(I)c(C(F)(F)F)n(C)c2=O)c(F)cc1Cl [476(R)]
Abutilon theophrasti; Dose 15 g/ha
  Weeding effect in post-emergence stage, Abutilon theophrasti (level): 5 (Level 5: growth control rate is above 85%)

## COC(=O)[C@@H](C)O/N=C/c1cc(-n2c(=O)c(OC)c(C(F)(F)F)n(C)c2=O)c(F)cc1Cl [477(R)]
Abutilon theophrasti; Dose 15 g/ha
  Weeding effect in post-emergence stage, Abutilon theophrasti (level): 5 (Level 5: growth control rate is above 85%)

## C[C@@H](O/N=C/c1cc(-n2c(=O)c(CCO)c(C(F)(F)F)n(C)c2=O)c(F)cc1Cl)C(=O)OCCO [478(R)]
Abutilon theophrasti; Dose 60 g/ha
  Weeding effect in post-emergence stage, Abutilon theophrasti (level): 5 (Level 5: growth control rate is above 85%)

## COC(=O)C[C@@H](C)O/N=C/c1cc(-n2c(=O)cc(C(F)(F)F)n(C)c2=O)c(F)cc1Cl [481(R)]
Abutilon theophrasti; Dose 15 g/ha
  Weeding effect in post-emergence stage, Abutilon theophrasti (level): 5 (Level 5: growth control rate is above 85%)

## CC(O/N=C/c1cc(-n2c(=O)n(C)c(=S)n(C)c2=O)c(F)cc1Cl)C(=O)OCc1cccnc1 (stereo not shown) [Compound 59]
Digitaria sanguinalis
  Weeding effect in post-emergence stage, Digitaria sanguinalis: 5 (Level 5: growth control rate is above 85%)
Setaria viridis
  Weeding effect in post-emergence stage, Setaria viridis: 5 (Level 5: growth control rate is above 85%)
Abutilon theophrasti; Dose 15 g/ha
  Weeding effect in post-emergence stage, Abutilon theophrasti: 5 (Level 5: growth control rate is above 85%)
Eleusine indica
  Weeding effect in post-emergence stage, Eleusine indica: 5 (Level 5: growth control rate is above 85%)
Echinochloa crusgalli
  Weeding effect in post-emergence stage, Echinochloa crusgalli: 5 (Level 5: growth control rate is above 85%)

## CCCC(O/N=C/c1cc(-n2c(=O)n(C)c(=S)n(C)c2=O)c(F)cc1Cl)C(=O)OCC (stereo not shown) [Compound 74]
Digitaria sanguinalis
  Weeding effect in post-emergence stage, Digitaria sanguinalis: 4 (Level 4: growth control rate is greater than or equal to 60% and less than 85%)
Setaria viridis
  Weeding effect in post-emergence stage, Setaria viridis: 5 (Level 5: growth control rate is above 85%)
Abutilon theophrasti; Dose 15 g/ha
  Weeding effect in post-emergence stage, Abutilon theophrasti: 5 (Level 5: growth control rate is above 85%)
Eleusine indica
  Weeding effect in post-emergence stage, Eleusine indica: 4 (Level 4: growth control rate is greater than or equal to 60% and less than 85%)
Echinochloa crusgalli
  Weeding effect in post-emergence stage, Echinochloa crusgalli: 5 (Level 5: growth control rate is above 85%)

## CC(O/N=C/c1cc(-n2c(=O)cc(C(F)(F)F)n(C)c2=O)c(F)cc1Cl)C(=O)OCCOC(=O)C(C)O/N=C/c1cc(-n2c(=O)cc(C(F)(F)F)n(C)c2=O)c(F)cc1Cl (stereo not shown) [Compound 451]
Abutilon theophrasti; Dose 15 g/ha
  Weeding effect in post-emergence stage, Abutilon theophrasti (level): 5 (Level 5: growth control rate is above 85%)

## CC(O/N=C/c1cc(-n2c(=O)cc(C(F)(F)F)n(C)c2=O)c(F)cc1Cl)C(=O)NO (stereo not shown) [Compound 452]
Abutilon theophrasti; Dose 15 g/ha
  Weeding effect in post-emergence stage, Abutilon theophrasti (level): 5 (Level 5: growth control rate is above 85%)

## COC(=O)CCO/N=C/c1cc(-n2c(=O)cc(C(F)(F)F)n(C)c2=O)c(F)cc1Cl [Compound 479]
Abutilon theophrasti; Dose 15 g/ha
  Weeding effect in post-emergence stage, Abutilon theophrasti (level): 5 (Level 5: growth control rate is above 85%)

## CCOC(=O)CCO/N=C/c1cc(-n2c(=O)cc(C(F)(F)F)n(C)c2=O)c(F)cc1Cl [Compound 480]
Abutilon theophrasti; Dose 15 g/ha
  Weeding effect in post-emergence stage, Abutilon theophrasti (level): 5 (Level 5: growth control rate is above 85%)

## COC(=O)C(C)O/N=C/c1cc(-n2c(=O)cc(C(F)(F)F)n(N)c2=O)c(F)cc1Cl (stereo not shown) [Control compound E, reference compound]
Digitaria sanguinalis; [1]
  Weeding effect in post-emergence stage, Digitaria sanguinalis (level): 3 (Level 3: growth control rate is greater than or equal to 40% and less than 60%)
Setaria viridis; [1]
  Weeding effect in post-emergence stage, Setaria viridis (level): 4 (Level 4: growth control rate is greater than or equal to 60% and less than 85%)
Alopecurus japonicus; [1]
  Weeding effect in post-emergence stage, Alopecurus japonicus (level): 3 (Level 3: growth control rate is greater than or equal to 40% and less than 60%)
Eleusine indica; [1]
  Weeding effect in post-emergence stage, Eleusine indica (level): 3 (Level 3: growth control rate is greater than or equal to 40% and less than 60%)
Echinochloa crusgalli; [1]
  Weeding effect in post-emergence stage, Echinochloa crusgalli (level): 4 (Level 4: growth control rate is greater than or equal to 60% and less than 85%)
